{"source": "patent US6958141B2", "about": "“Rhenium and technetium complexes containing a hypoxia-localizing moiety” (Bracco International B.V., priority 1991, dated 2005)", "key": {"[1]": {"assay": "Determination of reduction potential by cyclic voltammetry", "assay_type": "physicochemical", "conditions": "for Epc(V): cyclic voltammetry in dimethylformamide at Hg, vs. Ag/AgNO3; for Reduction process: cyclic voltammetry in dimethylformamide", "protocol": "The reduction potentials of misonidazole, ^99TcO(PnAO), and ^99Tc-hypoxia-localizing tracers were determined by cyclic voltammetry (C.V.) in dimethylformamide. […] The reference electrode was Ag/AgNO3 with an acetonitrile filling solution saturated with LiCl. The counter electrode was a platinum wire. Voltamograms at mercury were determined at scan rates of 50, 100, 200, and 500 mV/s.\nThe solutions used in C.V. studies contained test sample at a concentration of 0.2-0.7 mM and tetrabutylammonium tetrafluoroborate (Bu4NBF4) or tetrabutylammonium hexafluorophosphate (Bu4NPF6) supporting electrolyte at a concentration of 0.1M. The solution was deoxygenated by bubbling solvent-saturated nitrogen or argon through the solution for 15 minutes. Variations in the reference potential were accounted for by determining the C.V. of a Ru(acac)3 standard on a daily basis."}, "xanthine oxidase": {"target": "T1, xanthine oxidase (Bos taurus, UniProt P80457)", "T1 construct": "purchased Boeringer (sic; Boehringer)", "T1 sequence (P80457 whole entry)": "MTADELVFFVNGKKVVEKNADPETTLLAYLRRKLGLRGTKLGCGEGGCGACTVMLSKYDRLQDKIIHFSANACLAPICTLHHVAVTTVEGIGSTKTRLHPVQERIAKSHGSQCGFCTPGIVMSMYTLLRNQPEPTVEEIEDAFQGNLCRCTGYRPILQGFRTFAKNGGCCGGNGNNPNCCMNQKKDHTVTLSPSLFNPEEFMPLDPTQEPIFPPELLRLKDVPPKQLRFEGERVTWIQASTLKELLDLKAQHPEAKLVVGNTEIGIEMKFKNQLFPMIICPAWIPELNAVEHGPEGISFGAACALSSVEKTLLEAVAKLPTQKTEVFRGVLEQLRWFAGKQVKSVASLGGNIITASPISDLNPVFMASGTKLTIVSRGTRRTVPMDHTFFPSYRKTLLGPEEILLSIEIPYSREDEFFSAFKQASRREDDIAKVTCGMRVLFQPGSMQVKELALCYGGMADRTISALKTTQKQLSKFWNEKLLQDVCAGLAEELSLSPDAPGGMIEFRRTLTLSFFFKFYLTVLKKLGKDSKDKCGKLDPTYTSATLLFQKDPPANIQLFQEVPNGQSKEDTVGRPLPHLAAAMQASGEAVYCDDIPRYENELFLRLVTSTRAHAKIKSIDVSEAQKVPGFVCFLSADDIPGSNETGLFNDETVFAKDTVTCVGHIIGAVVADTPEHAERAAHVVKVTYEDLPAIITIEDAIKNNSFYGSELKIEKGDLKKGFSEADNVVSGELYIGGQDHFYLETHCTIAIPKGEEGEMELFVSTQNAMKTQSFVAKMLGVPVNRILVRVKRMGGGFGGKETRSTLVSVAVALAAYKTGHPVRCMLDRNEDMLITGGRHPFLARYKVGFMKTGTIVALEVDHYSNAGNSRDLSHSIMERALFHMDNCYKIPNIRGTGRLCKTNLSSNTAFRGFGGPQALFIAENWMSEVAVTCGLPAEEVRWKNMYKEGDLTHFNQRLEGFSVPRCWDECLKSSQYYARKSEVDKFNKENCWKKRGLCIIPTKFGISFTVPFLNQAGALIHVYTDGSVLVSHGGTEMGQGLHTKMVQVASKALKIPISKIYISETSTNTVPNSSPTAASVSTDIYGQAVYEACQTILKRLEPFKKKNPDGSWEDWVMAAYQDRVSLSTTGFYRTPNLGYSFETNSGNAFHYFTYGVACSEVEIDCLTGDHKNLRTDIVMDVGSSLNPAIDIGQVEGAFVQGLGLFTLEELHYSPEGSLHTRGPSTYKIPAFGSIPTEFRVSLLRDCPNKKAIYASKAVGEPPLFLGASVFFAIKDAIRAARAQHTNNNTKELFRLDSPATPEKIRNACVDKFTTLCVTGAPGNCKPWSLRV", "assay": "Reduction of the Tc nitroimidazole complexes by xanthine oxidase", "assay_type": "biochemical", "conditions": "xanthine oxidase 1.25 units, hypoxanthine, pH 7.4, anaerobic (argon), up to 7 hours", "text": "The enzyme xanthine oxidase (in the presence of xanthine or hypoxanthine) is known to reduce the nitro group of such nitroimidazole-containing compounds as misonidazole and metronidazole (see for example P. D. Josephy, B. Palcic and L. D. Skarsgard,. “Reduction of Misonidazole and its Derivatives by Xanthine Oxidase”, Biochem. Pharmacol., 1981, 30, 849), and it has been postulated that such nitro reduction under anaerobic conditions is responsible for the selective trapping of these compounds in hypoxic tissue. Thus, a technetium or rhenium containing nitroimidazole complex should be capable of being reduced by xanthine oxidase under anaerobic conditions in the presence of hypoxanthine.\nTo a 2.5 mL quartz cuvette was added 0.25 micromoles of the ^99Tc-nitroimidazole complex of Example 6 or 6b in 125 μL of dimethylformamide, 1 mL of 0.01M hypoxanthine in pH 7.4 sodium phosphate buffer (0.1M), and 0.875 mL of 0.1M sodium phosphate buffer (pH 7.4) that contained 20 mg/L of disodium ethylenediamine tetraacetic acid (EDTA). The cuvette was sealed with a rubber septum, and purged with argon for 15 minutes to remove oxygen. To this was added 1.25 units of the enzyme xanthine oxidase (Boeringer) in 0.5 mL of deoxygenated pH 7.4 phosphate buffer. The cuvette was inverted to mix, and the UV/visible spectrum of the solution was recorded from 280 to 600 nm at 15 minute intervals.\nIt is believed that the disappearance of this nitro absorbance is due to reduction of the nitro group by xanthine oxidase.\nIn a parallel control reaction, the reagents above were mixed in the same fashion, but the ^99Tc complex of 3,3,9,9-tetramethyl-4,8-diazaundecane-2,10-dione dioxime (prepared by the method of Jurisson et al., Inorg. Chem., 1986, 25, 543) was substituted for the technetium complexes of Examples 6 or 6b."}, "[2]": {"tested_on": "Calcium-tolerant ventricular myocytes", "assay": "Isolated cardiac myocyte studies, retention of radioactivity", "assay_type": "cell-based, male Sprague Dawley rats", "conditions": "isolated myocytes; for Anoxia/normoxia ratio: % in Cell Pellet; for % in Cell Pellet, Anoxia / % in Cell Pellet, Normoxia: several Tc-99m complexes", "text": "Calcium-tolerant ventricular myocytes were isolated from hearts of male Sprague Dawley rats (200 g) according to the procedure of Wittenberg and Robinson (B. A. Wittenberg and T. F. Robinson, Cell Tissue Res., 216: 231, 1981) with modifications described previously (W. Rumsey, C. Schlosser, E. M. Nuutinen, M. Robiolio and D. F. Wilson, J. Biol. Chem., 265 (26): 15392, 1990). Cells were used immediately following morphological analysis (using a hemocytometer) of viability and were maintained at 37° C. during the experiments. The number of quiescent, rod shaped cells ranged from 70-90% within a total population of 5-9×10^6 cells.\nThe isolated myocytes were maintained in either a normoxic, hypoxic or anoxic state. Hypoxia was induced by providing an atmosphere of argon atop of the cells and sealing the flask during the incubation period. Glucose oxidase plus catalase (5/5 mg) was added to argon treated cells to provide anoxia. Cells were suspended (6.5-7.5×10^4 cells/ml) in isolation media and aliquots were added to incubation vials maintained at 37° C.\nAfter incubation with a test compound, myocytes were deproteinated with 1% ice-cold perchloric acid and centrifuged at 12,000 rpm for 30 sec. The supernatent was separated from the pellet and each counted using a LKB 1282 gamma counter. Alternatively, myocytes were separated from the suspending media by passing the cells through 99% dibutyl phthalate by centrifugation at 12,000 rpm for 30 sec. The three phases were separated and counted as described above. Results for the Tc-99m complex of the compound in Example 1 are given below:\nValues represent means ±S.E.M. for the number of experiments noted in the parentheses. The values are the percent of total radioactivity represented by each case. PCA pellet=perchloric acid-precipitated pellet which represents the activity associated with proteins/membranes. Cell pellet=whole cells passed through a layer of dibutyl phthalate (oil).\nSeveral Tc-99m complexes were examined in isolated myocytes using the protocol described above. The percentage of activity retained in the cell pellet was determined under anoxic and normoxic states."}, "[3]": {"tested_on": "hypoxic ischemic border zone", "assay": "Rabbit focal myocardial ischemia model (LAD occlusion), double-label autoradiography", "assay_type": "in vivo", "conditions": "permanent LAD coronary artery ligation, intravenous tracer, heart sections", "protocol": "A model of focal myocardial ischemia in the rabbit was developed, using permanent ligation of the left anterior descending (LAD) coronary artery. The model consisted of two studies. In the first, relative regional myocardial blood flow (MBF) and relative regional myocardial rate of glucose metabolism (MMRgl) were determined by autoradiography using a double-label study with the flow tracer ^99mTcCl(CDO)3MeB (R. K. Narra et al., J. Nucl. Med., 1989; 30:1830-1837) and ^14C-deoxy-glucose for MMRgl (L. Sokoloff et al., J. Neurochem., 1977, 28, 897-916). ^14C-deoxyglucose and the ^99mTc-hypoxia-localizing tracer were administered to a second group of rabbits with LAD coronary artery occlusion.\nAfter the surgical preparation and 20 minutes of LAD occlusion, ^14C-deoxyglucose (130-150 μCi) was injected as an intravenous bolus, and timed arterial blood samples were obtained. Twenty-five minutes later, ^99mTcCl(CDO)3MeB (10-12 mCi) was administered intravenously. Five minutes later, the rabbits were sacrificed by intravenous injection of Nembutal and potassium chloride. The heart was excised, frozen in liquid Freon-22, and 20 μm coronal sections obtained with a Microtome. Autoradiographs were obtained on all sections. For the first exposure (˜14 hours duration) of Kodak XAR film, extra heavy duty aluminum foil was interposed between the tissue and film to block completely the radiation emanating from ^14C to obtain the MBF information derived from ^99mTcCl(CDO)3MeB alone. After three days (to allow for decay of ^99mTc); a second autoradiograph was obtained without foil. The second exposure lasted 6-8 days, and,provided an image of the regional distribution of ^14C-deoxyglucose.\nIn a separate experiment using the rabbit LAD occlusion model and the double-label autoradiography procedures described above, the performance of the ^99mTc complex of the ligand described in Example 1 was compared to that of ^14C-misonidazole."}}}
{"molecule": "CC1=[N+](O)[99Tc-]23(=[O])[N](CCC[N]2C1(C)C)C(C)(C)C(Cn1ccnc1[N+](=O)[O-])=[N+]3[O-]", "note": "[Example 6, [^99Tc]Oxo[[3,3,9,9-tetramethyl-1-(2-nitro-1H-imidazo-1-yl)-4,8-diazaundecane-2,10-dione dioximato]-(3-)-N,N′,N″,N′″]technetium(V)]", "values": [{"measurement": "Epc(V)", "setting": "[1]; first or only reduction listed", "value": "−1.49", "unit": "V"}, {"measurement": "Epc(V)", "setting": "[1]; second reduction listed", "value": "−1.99", "unit": "V"}, {"measurement": "Reduction process", "setting": "[1]; first or only reduction listed", "value": "reversible"}, {"measurement": "Reduction process", "setting": "[1]; second reduction listed", "value": "irreversible"}, {"measurement": "absorbance peak at approximately 320 nm (nitroimidazole functionality), UV/visible spectral change", "setting": "xanthine oxidase", "value": "decreased in intensity"}]}
{"molecule": "CC1=[N+](O)[99Tc-]23(=[O])[N](CC(O)C[N]2C1(C)C)C(C)(C)C(Cn1ccnc1[N+](=O)[O-])=[N+]3[O-]", "note": "(stereo not drawn) [Example 6b, [^99Tc]Oxo[[6-hydroxy-3,3,9,9-tetramethyl-(2-nitro-1H-imidazo-1-yl)-4,8-diazaundecane-2,10-dione dioximato]-(3-)-N,N′,N″,N′″]technetium (V)]", "values": [{"measurement": "Epc(V)", "setting": "[1]; first or only reduction listed", "value": "−1.48", "unit": "V"}, {"measurement": "Epc(V)", "setting": "[1]; second reduction listed", "value": "−1.96", "unit": "V"}, {"measurement": "Reduction process", "setting": "[1]; first or only reduction listed", "value": "reversible"}, {"measurement": "Reduction process", "setting": "[1]; second reduction listed", "value": "irreversible"}, {"measurement": "absorbance peak at approximately 320 nm (nitroimidazole functionality), UV/visible spectral change", "setting": "xanthine oxidase", "value": "decreased in intensity"}]}
{"molecule": "CC(=NO)C(C)(C)NCC(C)CNC(C)(C)C(Cn1ccnc1[N+](=O)[O-])=NO", "note": "(stereo not drawn) [Example 23, 3,3,6,9,9-Pentamethyl-1-(2-nitro-1H-imidazol-1-yl)-4,8-diazaundecane-2,10-dione dioxime]", "values": [{"measurement": "melting point", "value": "167 to 168", "unit": "°C"}]}
{"molecule": "COC(=O)CCC(=NO)C(C)(C)NCCCNC(C)(C)C(Cn1ccnc1[N+](=O)[O-])=NO", "note": "[Example 24, 12-Methoxycarbonyl-3,3,9,9-tetramethyl-1-(2-nitro-1H-imidazol-1-yl)-4,8-diazadodecane-2,10-dione dioxime]", "values": [{"measurement": "melting point", "value": "137 to 139", "unit": "°C"}]}
{"molecule": "CCOCC(=NO)C(C)(C)NCCCNC(C)(C)C(Cn1ccnc1[N+](=O)[O-])=NO", "note": "[Example 25, 11-Ethoxy-3,3,9,9-tetramethyl-1-(2-nitro-1H-imidazol-1-yl)-4,8-diazaundecane-2,10-dione dioxime]", "values": [{"measurement": "melting point", "value": "122 to 123", "unit": "°C"}]}
{"molecule": "CC(=NO)C(C)(C)NCC(CNC(C)(C)C(C)=NO)CC(O)Cn1ccnc1[N+](=O)[O-]", "note": "(stereo not drawn) [Example 26, 3,3,9,9-Tetramethyl-6-[2-hydroxy-3-(2-nitro-1H-imidazol-1-yl)propyl]-4,8-diazaundecane-2,10-dione dioxime]", "values": [{"measurement": "melting point", "value": "185 to 187", "unit": "°C"}]}
{"molecule": "CC(=NO)C(C)(C)NCCCNC(C)(C)C(Cn1cc(C)nc1[N+](=O)[O-])=NO", "note": "[Example 27, 3,3,9,9-Tetramethyl-1-(4-methyl-2-nitro-1H-imidazol-1-yl)-4,8-diazaundecane-2,10-dione dioxime]", "values": [{"measurement": "melting point", "value": "140 to 141", "unit": "°C"}]}
{"molecule": "CC(=NO)C(C)(C)NCCCNC(C)(C)C(Cn1c(C)cnc1[N+](=O)[O-])=NO", "note": "[Example 28, 3,3,9,9-Tetramethyl-1-(5-methyl-2-nitro-1H-imidazol-1-yl)-4,8-diazaundecane-2,10-dione dioxime]", "values": [{"measurement": "melting point", "value": "150 to 152", "unit": "°C"}]}
{"molecule": "CC(=NO)C(C)(C)NCC(F)(F)CNC(C)(C)C(CCn1ccnc1[N+](=O)[O-])=NO", "note": "[Example 30, 6,6-Difluoro-3,3,9,9-tetramethyl-12-(2-nitro-1H-imidazol-1-yl)-4,8-diazadodecane-2,10-dione dioxime]", "values": [{"measurement": "melting point", "value": "90 to 92", "unit": "°C"}]}
{"molecule": "CC(=NO)C(C)(C)NCCCNC(C)(C)C(COCC(O)Cn1ccnc1[N+](=O)[O-])=NO", "note": "(stereo not drawn) [Example 31, 3,3,9,9-Tetramethyl-1-[2-hydroxy-3-(2-nitro-1H-imidazol-1-yl)propoxy]-4,8-diazaundecane-2,10-dione dioxime]", "values": [{"measurement": "melting point", "value": "134 to 135", "unit": "°C"}]}
{"molecule": "CC(=NO)C(C)(C)NCC(O)CNC(C)(C)C(CCn1ccnc1[N+](=O)[O-])=NO", "note": "(stereo not drawn) [Example 32, 6-Hydroxy-3,3,9,9-tetramethyl-12-(2-nitro-1H-imidazol-1-yl)-4,8-diazadodecane-2,10-dione dioxime]", "values": [{"measurement": "melting point", "value": "62 to 64", "unit": "°C"}]}
{"molecule": "CC1=[N+]([O-])[99Tc-]23(=[O])[N](CCC[N]2C(C)(C)C(C)=[N+]3O)C1(C)C", "note": "[^99TcO(PnAO), Tc(V) Oxo 3,3,9,9-tetramethyl-4-8-diazaundecane-2,10-dione-dioxime, reference compound]", "values": [{"measurement": "Epc(V)", "setting": "[1]; first or only reduction listed", "value": "−2.15", "unit": "V"}, {"measurement": "Reduction process", "setting": "[1]; first or only reduction listed", "value": "irreversible"}, {"measurement": "absorbance peak at approximately 320 nm (nitroimidazole functionality), UV/visible spectral change", "setting": "xanthine oxidase", "value": "no spectral changes were observed over a period of 7 hours"}]}
{"molecule": "CC(=NO)C(C)(C)NCC(O)CNC(C)(C)C(C)=NO", "note": "(stereo not drawn) [^99mTc Complex of 6-hydroxy-PnAO, 6-hydroxy PnAO(6-hydroxy-3,3,9,9-tetramethyl-4,8-diazaundecane-2,10-dione dioxime), metal not drawn, reference compound]", "values": [{"measurement": "Anoxia/normoxia ratio", "setting": "[2]", "value": 1.3}, {"measurement": "% in Cell Pellet, Anoxia", "setting": "[2]", "value": "9.2 (n = 1) %"}, {"measurement": "% in Cell Pellet, Normoxia", "setting": "[2]", "value": "7.1 (n = 1) %"}]}
{"molecule": "CC(=NO)C(C)(C)NCC(C)CNC(C)(C)C(C)=NO", "note": "(stereo not drawn) [^99mTc Complex of 6-methyl-PnAO, ^99mTc-complexes of 6-methyl PnAO (3,3,6,9,9-pentamethyl-4,8-diazaundecane-2,10-dione dioxime), metal not drawn, reference compound]", "values": [{"measurement": "regional myocardial distribution pattern (autoradiography)", "setting": "[3]", "value": "no differentiation of ischemic and non-ischemic regions"}, {"measurement": "Anoxia/normoxia ratio", "setting": "[2]", "value": 1.3}, {"measurement": "% in Cell Pellet, Anoxia", "setting": "[2]", "value": "22.7 (n = 1) %"}, {"measurement": "% in Cell Pellet, Normoxia", "setting": "[2]", "value": "17.4 (n = 1) %"}]}
{"molecule": "^14C-misonidazole", "values": [{"measurement": "regional myocardial distribution pattern (autoradiography)", "setting": "[3]", "value": "high uptake in the hypoxic border zone of the ischemic territory and low uptake in normoxic regions"}]}
